Measurements published in PubChem BioAssay AID2060615 (Molecular Pharmacology Branch, DTP, NCI, 2025).

Test system: 496974-208-R-J2-PDC complex spheroids, growth % test/control
Assay: Anticancer human tumor 496974-208-R-J2-PDC patient-derived pancreatic carcinoma cell line growth inhibition [CLK]
Conditions: for IC50: curve of first compound; for viability, T/C: stronger effect = lower value; active means viability on the fitted dose curve at most 10% of control; inactive means the rest
Procedure, shortened: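 Patient-derived tumor cells grown as complex spheroids with HUVEC endothelial cells and mesenchymal stem cells, treated with drug combinations. Concentrations descend in half-log steps from near clinical Cmax, or from 10 microM if Cmax unknown.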

[1] = second compound 0.0316 µM, first compound 0.0316 µM
[2] = second compound 0.0316 µM, first compound 0.1 µM
[3] = second compound 0.0316 µM, first compound 0.316 µM
[4] = second compound 0.0316 µM, first compound 1 µM
[5] = second compound 0.0316 µM, first compound 3.16 µM
[6] = second compound 0.0316 µM, first compound 10 µM
[7] = second compound 0.1 µM, first compound 0.0316 µM
[8] = second compound 0.1 µM, first compound 0.1 µM
[9] = second compound 0.1 µM, first compound 0.316 µM
[10] = second compound 0.1 µM, first compound 1 µM
[11] = second compound 0.1 µM, first compound 3.16 µM
[12] = second compound 0.1 µM, first compound 10 µM
[13] = second compound 0.316 µM, first compound 0.0316 µM
[14] = second compound 0.316 µM, first compound 0.1 µM
[15] = second compound 0.316 µM, first compound 0.316 µM
[16] = second compound 0.316 µM, first compound 1 µM
[17] = second compound 0.316 µM, first compound 3.16 µM
[18] = second compound 0.316 µM, first compound 10 µM
[19] = second compound 1 µM, first compound 0.0316 µM
[20] = second compound 1 µM, first compound 0.1 µM
[21] = second compound 1 µM, first compound 0.316 µM
[22] = second compound 1 µM, first compound 1 µM
[23] = second compound 1 µM, first compound 3.16 µM
[24] = second compound 1 µM, first compound 10 µM
[25] = second compound 3.16 µM, first compound 0.0316 µM
[26] = second compound 3.16 µM, first compound 0.1 µM
[27] = second compound 3.16 µM, first compound 0.316 µM
[28] = second compound 3.16 µM, first compound 1 µM
[29] = second compound 3.16 µM, first compound 3.16 µM
[30] = second compound 3.16 µM, first compound 10 µM
[31] = second compound 10 µM, first compound 0.0316 µM
[32] = second compound 10 µM, first compound 0.1 µM
[33] = second compound 10 µM, first compound 0.316 µM
[34] = second compound 10 µM, first compound 1 µM
[35] = second compound 10 µM, first compound 3.16 µM
[36] = second compound 10 µM, first compound 10 µM
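Further: spheroids exposed to the drugs for 7 days before readout.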
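Wherever viability, T/C is given: 100% = DMSO vehicle control wells.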

COc1ccc([C@@H](O)c2cc(-c3ncnc4cc(N5CCOCC5)ccc34)c(F)cc2Cl)nn1 + CN1CCN(c2cc(C(=O)Nc3cc4cc(-c5cnn(C)c5)ccc4cn3)ccn2)CC1
5.97 µM: IC50 (second compound 0.0316 µM)
inactive: viability, T/C [1] 110% | viability, T/C [2] 101% | viability, T/C [3] 92.9% | viability, T/C [4] 88.7% | viability, T/C [5] 63.6% | viability, T/C [6] 37.7% | viability, T/C [7] 84.8% | viability, T/C [8] 81.4% | viability, T/C [9] 84.2% | viability, T/C [10] 69.9% | viability, T/C [11] 52.2% | viability, T/C [12] 31.5%
< 0.0316 µM: IC50 (second compound 0.316 µM) | IC50 (second compound 1 µM) | IC50 (second compound 3.16 µM) | IC50 (second compound 10 µM)
active: viability, T/C [13] 4.25% | viability, T/C [14] 4.3% | viability, T/C [15] 5.59% | viability, T/C [16] 3.72% | viability, T/C [17] 2.53% | viability, T/C [18] 1.66% | viability, T/C [19] 0.41% | viability, T/C [20] 0.45% | viability, T/C [21] 2.89% | viability, T/C [22] 0.48% | viability, T/C [23] 1.17% | viability, T/C [24] 1.46% | viability, T/C [25] 0.36% | viability, T/C [26] 0.61% | viability, T/C [27] 0.67% | viability, T/C [28] 0.54% | viability, T/C [29] 2.79% | viability, T/C [30] 2.82% | viability, T/C [31] 0.19% | viability, T/C [32] 0.34% | viability, T/C [33] 1.74% | viability, T/C [34] 0.3% | viability, T/C [35] 2% | viability, T/C [36] 2.87%
3.47 µM: IC50 (second compound 0.1 µM)

COc1cccc2c1C(=O)c1c(O)c3c(c(O)c1C2=O)CC(O)(C(=O)CO)CC3OC1CC(N)C(O)C(C)O1 (stereo unspecified) + CN1CCN(c2cc(C(=O)Nc3cc4cc(-c5cnn(C)c5)ccc4cn3)ccn2)CC1
0.0785 µM: IC50 (second compound 0.1 µM)
< 0.0316 µM: IC50 (second compound 0.316 µM) | IC50 (second compound 1 µM) | IC50 (second compound 3.16 µM) | IC50 (second compound 10 µM)
inactive: viability, T/C [1] 68.7% | viability, T/C [2] 51.4% | viability, T/C [3] 30.8% | viability, T/C [7] 59.9% | viability, T/C [8] 46.6% | viability, T/C [9] 20.3%
0.12 µM: IC50 (second compound 0.0316 µM)
active: viability, T/C [4] 3.22% | viability, T/C [5] 0.57% | viability, T/C [6] 0.47% | viability, T/C [10] 2.07% | viability, T/C [11] 0.59% | viability, T/C [12] 4.88% | viability, T/C [13] 7.3% | viability, T/C [14] 3.63% | viability, T/C [15] 1.93% | viability, T/C [16] 0.81% | viability, T/C [17] 0.45% | viability, T/C [18] 3.13% | viability, T/C [19] 0.57% | viability, T/C [20] 1.13% | viability, T/C [21] 0.75% | viability, T/C [22] 0.66% | viability, T/C [23] 0.36% | viability, T/C [24] 4.38% | viability, T/C [25] 0.52% | viability, T/C [26] 0.84% | viability, T/C [27] 0.57% | viability, T/C [28] 0.48% | viability, T/C [29] 1.77% | viability, T/C [30] 4.51% | viability, T/C [31] 0.22% | viability, T/C [32] 1.44% | viability, T/C [33] 0.2% | viability, T/C [34] 0.2% | viability, T/C [35] 0.21% | viability, T/C [36] 5.39%

C=C(F)C(=O)N1CCN(c2nc(OCC3CCCN3C)nc3c2CCN(c2cccc4cccc(Cl)c24)C3)CC1CC#N (stereo unspecified) + CNC(=O)c1ccc(Nc2nc(OC3CCCC3)c3c(-c4ccc5nc(C)oc5c4)c[nH]c3n2)c(OC)c1
active: viability, T/C [6] 4.85% | viability, T/C [12] 1.82% | viability, T/C [18] 5.04% | viability, T/C [24] 0.69% | viability, T/C [30] 1.05% | viability, T/C [36] 1.59%
4.52 µM: IC50 (second compound 0.1 µM)
4.15 µM: IC50 (second compound 0.316 µM)
inactive: viability, T/C [1] 89% | viability, T/C [2] 91.7% | viability, T/C [3] 90.5% | viability, T/C [4] 90.6% | viability, T/C [5] 91.4% | viability, T/C [7] 79.2% | viability, T/C [8] 73.6% | viability, T/C [9] 72.9% | viability, T/C [10] 76.1% | viability, T/C [11] 71.7% | viability, T/C [13] 80.4% | viability, T/C [14] 72.9% | viability, T/C [15] 73.5% | viability, T/C [16] 76.2% | viability, T/C [17] 63.8% | viability, T/C [19] 69.5% | viability, T/C [20] 68.5% | viability, T/C [21] 64.7% | viability, T/C [22] 64.8% | viability, T/C [23] 47.9% | viability, T/C [25] 59.8% | viability, T/C [26] 59.4% | viability, T/C [27] 55.8% | viability, T/C [28] 56.9% | viability, T/C [29] 47.5% | viability, T/C [31] 56.4% | viability, T/C [32] 52.2% | viability, T/C [33] 48.4% | viability, T/C [34] 45.4% | viability, T/C [35] 39.8%
2.32 µM: IC50 (second compound 3.16 µM)
2.74 µM: IC50 (second compound 1 µM)
5.46 µM: IC50 (second compound 0.0316 µM)
0.549 µM: IC50 (second compound 10 µM)
